Data on one compound can be found in paper PMC11984586, “A novel spider toxin as a selective antagonist of the Kv1 subfamily of voltage-gated potassium channels through gating modulation” (The Journal of Biological Chemistry, 2025).

Each structure is given as a SMILES string. Bridge positions count the residues as written; N and C are the ends. Peptide text beside a SMILES is read from it.

The test system of assay [1] is Kv1.1/1.3 S3-S4 chimeric channel. Briefly: Whole-cell patch clamp, chimeric channel. It counts as cell-based, human. The settings on record: +30 mV, 500 ms, mean ± SD, n = 4-5, read-out: IC50, Kv1.1/1.3 S3-S4 current (complete inhibition). The source says:
To investigate the structural determinants underlying the differential regulatory effects of MrVIII on Kv1 channels, we employed a chimeric channel strategy. Using Kv1.3 as the template, the S1-S2, S3-S4, and S5-S6 transmembrane helices and their respective linkers from Kv1.1 were inserted to generate chimeras, generating the Kv1.3/1.1 S1-S2, Kv1.3/1.1 S3-S4, and Kv1.3/1.1 S5-S6 chimeric channels. […] These findings indicate that the S3-S4 is the key determinant for the differential inhibition of Kv1.1 and Kv1.3 by MrVIII. To further validate this conclusion, we constructed a reverse chimeric channel using Kv1.1 as the template, inserting the corresponding regions from Kv1.3 into Kv1.1. […] This finding more directly illustrates the exchange of the channel's voltage-dependence phenotype in toxin inhibition by swapping this S3-S4 between Kv1.1 and Kv1.3. […] In addition to confirming the differential role of S3-S4 between Kv1.1 and Kv1.3, we also substituted the S3-S4 of Kv1.4 and Kv1.7 into Kv1.3 to analyze MrVIII's inhibition profile. […] The IC50 for Kv1.3/1.7 S3-S4 could not be fitted, and inhi%(495 ms) was only 23.1 ± 10.0% (Fig. S2, E and F).
(§1) The cDNA of hKv1.1, hKv1.2, hKv1.3, rKv1.4, hKv1.5, mKv1.6, and hKv1.7 were subcloned into mammalian expression vectors pcDNA3.1 or pCMV-blank vectors, as well as other plasmids described previously ([35]). Channel mutants were generated by site-directed mutations. Briefly, the parental channel plasmid was amplified using a pair of oppositely directed primers harboring the designed mutation site, with KOD Fx (TOYOBO Co, Ltd). The resulting PCR mix was treated with FastDigest DpnI (Thermo Fisher Scientific) to remove the methylated template. Ten microliters of the digested product was then used to transform 100 μl E. coli DH5α competent cells. Transformants were randomly picked and sequenced to confirm the presence of the intended mutation.
(§2) CHO-K1 cells were selected for expressing Kv channels due to their lack of endogenous Kv channels, while HEK293 or ND7/23 cells were used for Nav and Cav channel expression. CHO-K1 cells were cultured in a Dulbecco's modified Eagle's medium/Ham's F-12 nutrient mixture (DMEM-F12) medium, and HEK293T and ND7/23 cells in DMEM medium, all supplemented with 10% fetal bovine serum and 1% penicillin-streptomycin (all from Gibco, Thermo Fisher Scientific, Inc) under standard conditions (37 °C, 5% CO2, and saturated humidity). These cell lines were purchased from Stem Cell Bank, Chinese Academy of Sciences. Channel plasmids were cotransfected with pEGFP-N1 (encoding GFP) into the respective cells using lipofectamine 2000, following the manufacturer's instructions (Invitrogen, Thermo Fisher Scientific, Inc.). Nav1.9-GFP plasmid was transfected into ND7/23 using the X-tremeGENE HP DNA Transfection Reagent (Roche). After 4 to 6 h transfection, cells were seeded onto poly-lysine–coated coverslips, and 24 to 36 h later, transfected cells were ready for patch-clamp analysis.
(§3) Patch clamp experiments were conducted using an electrophysiology platform comprising a MultiClamp 700B amplifier and an Axon Digidata 1550 AD/DA convertor (Axon Instruments). Data acquisition was performed with pClamp 10.5 software (Axon Instruments). All experiments were performed at room temperature.
(§4) For Kv current recordings, the bath solution contained (in mM) the following: 140 NaCl, 5 KCl, 1 MgCl2, 2 CaCl2, 10 glucose, and 10 Hepes (pH 7.3, adjusted with NaOH), and the pipette solution contained (in mM) the following: 140 KCl, 2.5 MgCl2, 11 EGTA, and 10 Hepes (pH 7.3, adjusted with KOH). Series resistance was maintained below 10 MΩ and compensated to 80%. Concentration–response curves were fitted by the Hill equation to determine the toxin's potency. Whole cell conductance (G) at each depolarizing voltage (V) was determined using the equation: G = I/(V−Vrev), where I is the current amplitude, and Vrev is the reversal potential. […]
For orientation: The patch-clamp technique gives a direct electrical read-out from membranes.

The target in a further assay is T1, Kv1.3/E346A (Homo sapiens, UniProt P22001, E346A).
T1 construct: expressed in transfected cells; host or cells: CHO-K1
Briefly: Whole-cell patch clamp, Kv1.3 alanine mutant. The format is cell-based. Here is the method: (§5) MrVIII inhibits Kv1 channels by stabilizing the voltage sensor in its resting state. […] To investigate this hypothesis, we constructed a series of alanine mutants in the S3-S4 region of the Kv1.3 channel, covering residues I336 to L363, to identify critical interactions between the peptide and the channel (Fig. 6A). […] For the remaining mutants that retained functional current expression, we evaluated the inhibitory activity of 100 nM MrVIII. […] The lack of conserved multiple interaction sites may explain the absence of activity on other Kv subfamily channels (Fig. S3). In summary, this study identified key amino acid residues in the S3-S4 region of the Kv1.3 channel that interact with MrVIII, providing a foundation for further exploration into the peptide's mechanism of action.
as §1, §2, §3
as §4, with “potential. The reversal potential for K^+ current was estimated to be −85.6 mV using the Nernst equation. G-V curves were obtained by plotting the normalized conductance as a function of V and fitted by the Boltzmann equation: y = 1/(1+ exp((Va-V)/k)), which Va is the midpoint voltage, V is the test potential, and k is the slope factor. The steady-state fast inactivation of Kv1.3 was measured using a two-pulses protocol.” for “potential.”

For a further assay, the target named is T2, Kv1.3/I341A (Homo sapiens, UniProt P22001, I341A).
T2 construct: expressed in transfected cells; host or cells: CHO-K1
Briefly: Whole-cell patch clamp, Kv1.3 alanine mutant. The format is cell-based. Here is the method: as §5, §1, §2, §3
as §4, with “potential. The reversal potential for K^+ current was estimated to be −85.6 mV using the Nernst equation. G-V curves were obtained by plotting the normalized conductance as a function of V and fitted by the Boltzmann equation: y = 1/(1+ exp((Va-V)/k)), which Va is the midpoint voltage, V is the test potential, and k is the slope factor. The steady-state fast inactivation of Kv1.3 was measured using a two-pulses protocol.” for “potential.”

Another assay has as its target T3, Kv1.3/L360A (Homo sapiens, UniProt P22001, L360A).
T3 construct: expressed in transfected cells; host or cells: CHO-K1
Briefly: Whole-cell patch clamp, Kv1.3 alanine mutant. It counts as cell-based. As to the method: as §5, §1, §2, §3
as §4, with “potential. The reversal potential for K^+ current was estimated to be −85.6 mV using the Nernst equation. G-V curves were obtained by plotting the normalized conductance as a function of V and fitted by the Boltzmann equation: y = 1/(1+ exp((Va-V)/k)), which Va is the midpoint voltage, V is the test potential, and k is the slope factor. The steady-state fast inactivation of Kv1.3 was measured using a two-pulses protocol.” for “potential.”

A further assay has as its target T4, Kv1.3/T342A (Homo sapiens, UniProt P22001, T342A).
T4 construct: expressed in transfected cells; host or cells: CHO-K1
Briefly: Whole-cell patch clamp, Kv1.3 alanine mutant. It counts as cell-based. As to the method:
as §5, §1, §2, §3
as §4, with “potential. The reversal potential for K^+ current was estimated to be −85.6 mV using the Nernst equation. G-V curves were obtained by plotting the normalized conductance as a function of V and fitted by the Boltzmann equation: y = 1/(1+ exp((Va-V)/k)), which Va is the midpoint voltage, V is the test potential, and k is the slope factor. The steady-state fast inactivation of Kv1.3 was measured using a two-pulses protocol.” for “potential.”

Setting [2] is: 100 nM MrVIII on mutant compared with 10 nM on WT Kv1.3, +30 mV, n = 4–7.

T4 sequence (P22001 whole entry T342A): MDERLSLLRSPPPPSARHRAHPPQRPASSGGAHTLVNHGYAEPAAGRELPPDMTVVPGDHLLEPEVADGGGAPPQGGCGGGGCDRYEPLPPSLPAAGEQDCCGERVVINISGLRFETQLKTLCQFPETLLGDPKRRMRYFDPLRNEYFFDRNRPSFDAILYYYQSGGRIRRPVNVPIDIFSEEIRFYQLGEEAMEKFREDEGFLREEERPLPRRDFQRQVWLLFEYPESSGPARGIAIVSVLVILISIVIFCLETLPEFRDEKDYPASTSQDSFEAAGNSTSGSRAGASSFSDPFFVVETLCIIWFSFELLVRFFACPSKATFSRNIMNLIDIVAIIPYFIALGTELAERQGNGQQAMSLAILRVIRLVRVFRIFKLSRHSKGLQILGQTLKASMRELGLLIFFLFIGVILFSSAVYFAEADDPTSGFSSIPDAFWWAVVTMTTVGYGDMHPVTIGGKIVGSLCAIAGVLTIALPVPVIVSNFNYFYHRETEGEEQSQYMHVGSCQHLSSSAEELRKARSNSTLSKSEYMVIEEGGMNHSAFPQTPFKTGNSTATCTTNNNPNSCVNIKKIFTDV
T2 sequence (P22001 whole entry I341A): as the sequence (P22001 whole entry T342A) above, with I341A, A342T counted along it
T1 sequence (P22001 whole entry E346A): as the sequence (P22001 whole entry T342A) above, with A342T, E346A counted along it
T3 sequence (P22001 whole entry L360A): as the sequence (P22001 whole entry T342A) above, with A342T, L360A counted along it

In the case of `CC[C@H](C)[C@@H]1NC(=O)[C@H](Cc2ccc(O)cc2)NC(=O)[C@H](CCC(N)=O)NC(=O)[C@@H]2CCCN2C(=O)[C@@H]2CSSC[C@H](NC(=O)[C@H](C)NC(=O)[C@H](CO)NC(=O)[C@H](CCC(=O)O)NC(=O)[C@H](CCC(=O)O)NC(=O)[C@@H](N)[C@@H](C)O)C(=O)NCC(=O)NCC(=O)N[C@@H](Cc3ccccc3)C(=O)N[C@@H](CC(N)=O)C(=O)N[C@@H](C)C(=O)N[C@@H](CCCNC(=N)N)C(=O)N[C@H]3CSSC[C@H](NC1=O)C(=O)N[C@@H](CCCCN)C(=O)NCC(=O)N[C@@H](Cc1c[nH]c4ccccc14)C(=O)N[C@@H](CCCNC(=N)N)C(=O)N[C@@H]([C@@H](C)O)C(=O)N[C@@H](CCCCN)C(=O)N[C@@H](CCCNC(=N)N)C(=O)N[C@H](C(=O)N[C@@H](CC(C)C)C(=O)N[C@@H](CC(N)=O)C(=O)N1CCC[C@H]1C(=O)O)CSSC[C@H](NC(=O)[C@H](CCCCN)NC(=O)[C@H](Cc1c[nH]cn1)NC(=O)[C@H](CC(C)C)NC(=O)[C@@H]1CCCN1C3=O)C(=O)N2` [MrVIII] (H-TEESACGGFNARCPLHKCCPQYICKGWRTKRCLNP-OH; disulfide 6-19, 13-24, 18-32; N-terminus and C-terminus assumed), the IC50 in assay [1] was 1.7 ± 0.6 nM; at Kv1.3/E346A (+30 mV, 500 ms, mean ± SD, n = 4–6, SD, read-out: IC50, Kv1.3/E346A current), 51.1 ± 21.1 nM; at Kv1.3/I341A (+30 mV, 500 ms, mean ± SD, n = 4–6, SD, read-out: IC50, Kv1.3/I341A current), 41 ± 26.3 nM; at Kv1.3/L360A (+30 mV, 500 ms, mean ± SD, n = 4–6, SD, read-out: IC50, Kv1.3/L360A current) it was 148 ± 60.4 nM; against Kv1.3/T342A (current at 50 ms, +30 mV, mean ± SD, n = 4–6, SD), 143 ± 38.2 nM. Further, the “decrease of inhibitory potency vs WT Kv1.3, E346A” value at Kv1.3/E346A (setting [2]) is recorded as “more than 10 fold”. Also, the “decrease of inhibitory potency vs WT Kv1.3, I341A” value at Kv1.3/I341A (setting [2]) is “more than 10 fold”. At Kv1.3/L360A (setting [2]), the “decrease of inhibitory potency vs WT Kv1.3, L360A” value is on record as “more than 10 fold”. Further, at Kv1.3/T342A (setting [2]), the “decrease of inhibitory potency vs WT Kv1.3, T342A” value is recorded as “more than 10 fold”. Further, the “inhi%(495 ms), Kv1.3/T342A current” value on Kv1.3/T342A (current at 495 ms, +30 mV, mean ± SD, n = 4–6, SD) is 27.7 ± 12.9%.
